Data reported in patent US20050101595A1, “N-containing cycloalkyl-substituted amino-thiazole derivatives and pharmaceutical compositions for inhibiting cell proliferation and methods for their use” (PFIZER INC., priority 2003, published 2005).

System: HCT-116 cell line
Experiment: Inhibition of cell growth, tetrazolium salt (MTT) assay
Format: cell-based
Settings: HCT116 cells; compound at 250 nM; 0.25 µM
Protocol: Inhibition of Cell Growth: Assessment of Cytotoxicity:
Inhibition of cell growth was measured using the tetrazolium salt assay, which is based on the ability of viable cells to reduce 3-(4,5-dimethylthiazol-2-yl)-2,5-[2H]-diphenyltetrazolium bromide (MTT) to formazan (Mossman, Journal of Immunological Methods, vol. 65 (1983), pp. 55-58). The water-insoluble purple formazan product was then detected spectrophotometrically. The HCT-116 cell line was used as a representative cancer cell line and grown in 96-well plates. Cells were plated in McCoy's 5A Medium at a volume of 135 μl/well. Plates were incubated for four hours before addition of inhibitor compounds. Different concentrations of inhibitor compounds were added in 0.5% (v/v) dimethylsulfoxide (15 μLuwell), and cells were incubated at 37° C. (5% CO2) for three to five days. At the end of the incubation, MTT was added to a final concentration of 0.2 mg/mL, and cells were incubated for 4 hours more at 37° C. After centrifugation of the plates and removal of medium, the absorbance of the formazan (solubilized in dimethylsulfoxide) was measured at 540 nm. […] All results were compared to control cells treated only with 0.5% (v/v) dimethylsulfoxide.

Row | SMILES | % Inhibition HCT116 @ 250 nM [%]
1 | CC(=O)NCCNCCS(=O)(=O)N1CCC(Nc2nc(N)c(C(=O)c3c(F)cccc3F)s2)CC1 [Example S113] | 51
2 | N#CCNCCS(=O)(=O)N1CCC(Nc2nc(N)c(C(=O)c3c(F)cccc3F)s2)CC1 [Example S128] | 86
3 | N#CCNCCS(=O)(=O)N1CCC(Nc2nc(N)c(C(=O)c3c(F)cccc3F)s2)CC1 [Example S160] | 30
4 | CC(=O)NCCNCCS(=O)(=O)N1CCC(Nc2nc(N)c(C(=O)c3c(F)cccc3F)s2)CC1 [Example S165] | 25

Same assay, conditions: Homo sapiens, HCT-116, HCT116 cells; compound at 250 nM; read-out: % Inhibition HCT116 @ 250 nM

Row | SMILES | inhibition at 0.25 µM [%]
5 | CC(O)CNCCS(=O)(=O)N1CCC(Nc2nc(N)c(C(=O)c3c(F)cccc3F)s2)CC1 (stereo not drawn) [Example S110] | 16
6 | CC(C)CNCCS(=O)(=O)N1CCC(Nc2nc(N)c(C(=O)c3c(F)cccc3F)s2)CC1 [Example S111] | 54
7 | Nc1nc(NC2CCN(S(=O)(=O)CCNCCNc3ccccc3)CC2)sc1C(=O)c1c(F)cccc1F [Example S112] | 15
8 | CN(C)CCNCCS(=O)(=O)N1CCC(Nc2nc(N)c(C(=O)c3c(F)cccc3F)s2)CC1 [Example S114] | 49
9 | Nc1nc(NC2CCN(S(=O)(=O)CCNCCO)CC2)sc1C(=O)c1c(F)cccc1F [Example S115] | 68
10 | Nc1nc(NC2CCN(S(=O)(=O)CCNCCc3ccccc3)CC2)sc1C(=O)c1c(F)cccc1F [Example S116] | 60
11 | Nc1nc(NC2CCN(S(=O)(=O)CCNCCc3ccc(O)cc3)CC2)sc1C(=O)c1c(F)cccc1F [Example S117] | 86
12 | Cc1ccc(CCNCCS(=O)(=O)N2CCC(Nc3nc(N)c(C(=O)c4c(F)cccc4F)s3)CC2)cc1 [Example S118] | 25
13 | C#CCNCCS(=O)(=O)N1CCC(Nc2nc(N)c(C(=O)c3c(F)cccc3F)s2)CC1 [Example S119] | 20
14 | C=CCNCCS(=O)(=O)N1CCC(Nc2nc(N)c(C(=O)c3c(F)cccc3F)s2)CC1 [Example S120] | 17
15 | CC(C)(C)CCNCCS(=O)(=O)N1CCC(Nc2nc(N)c(C(=O)c3c(F)cccc3F)s2)CC1 [Example S121] | 20
16 | CC(C)CCNCCS(=O)(=O)N1CCC(Nc2nc(N)c(C(=O)c3c(F)cccc3F)s2)CC1 [Example S122] | 54
17 | CC(C)OCCCNCCS(=O)(=O)N1CCC(Nc2nc(N)c(C(=O)c3c(F)cccc3F)s2)CC1 [Example S123] | 15
18 | Nc1nc(NC2CCN(S(=O)(=O)CCNCc3ccc(F)cc3F)CC2)sc1C(=O)c1c(F)cccc1F [Example S124] | 51
19 | Nc1nc(NC2CCN(S(=O)(=O)CCNCc3cc(F)ccc3F)CC2)sc1C(=O)c1c(F)cccc1F [Example S125] | 49
20 | Nc1nc(NC2CCN(S(=O)(=O)CCNCc3c(F)cccc3F)CC2)sc1C(=O)c1c(F)cccc1F [Example S126] | 68
21 | Nc1nc(NC2CCN(S(=O)(=O)CCNCc3ccc(F)c(F)c3)CC2)sc1C(=O)c1c(F)cccc1F [Example S127] | 60
22 | COC(=O)CNCCS(=O)(=O)N1CCC(Nc2nc(N)c(C(=O)c3c(F)cccc3F)s2)CC1 [Example S129] | 25
23 | CC(CN(C)C)NCCS(=O)(=O)N1CCC(Nc2nc(N)c(C(=O)c3c(F)cccc3F)s2)CC1 (stereo not drawn) [Example S130] | 20
24 | CC(CNCCS(=O)(=O)N1CCC(Nc2nc(N)c(C(=O)c3c(F)cccc3F)s2)CC1)N(C)C (stereo not drawn) [Example S131] | 17

Row | SMILES | inhibition at 0.25 µM [%]
25 | N#CCCNCCS(=O)(=O)N1CCC(Nc2nc(N)c(C(=O)c3c(F)cccc3F)s2)CC1 [Example S132] | 20
26 | CSCCNCCS(=O)(=O)N1CCC(Nc2nc(N)c(C(=O)c3c(F)cccc3F)s2)CC1 [Example S133] | 18
27 | CC(C)N(CCNCCS(=O)(=O)N1CCC(Nc2nc(N)c(C(=O)c3c(F)cccc3F)s2)CC1)C(C)C [Example S134] | 17
28 | CC(C)C(NCCS(=O)(=O)N1CCC(Nc2nc(N)c(C(=O)c3c(F)cccc3F)s2)CC1)C(C)C [Example S135] | 100
29 | CC1CC(NCCS(=O)(=O)N2CCC(Nc3nc(N)c(C(=O)c4c(F)cccc4F)s3)CC2)CC(C)(C)C1 (stereo not drawn) [Example S136] | 81
30 | Cc1ccc(CNCCS(=O)(=O)N2CCC(Nc3nc(N)c(C(=O)c4c(F)cccc4F)s3)CC2)c(C)c1 [Example S137] | 43
31 | CC(C)c1ccc(CNCCS(=O)(=O)N2CCC(Nc3nc(N)c(C(=O)c4c(F)cccc4F)s3)CC2)cc1 [Example S138] | 22
32 | Nc1nc(NC2CCN(S(=O)(=O)CCNCC3CC3)CC2)sc1C(=O)c1c(F)cccc1F [Example S139] | 39
33 | Nc1nc(NC2CCN(S(=O)(=O)CCNCCc3ccncc3)CC2)sc1C(=O)c1c(F)cccc1F [Example S140] | 25
34 | CCC(NCCS(=O)(=O)N1CCC(Nc2nc(N)c(C(=O)c3c(F)cccc3F)s2)CC1)c1ccccc1 (stereo not drawn) [Example S141] | 78
35 | Nc1nc(NC2CCN(S(=O)(=O)CCNCc3cccc(Cl)c3)CC2)sc1C(=O)c1c(F)cccc1F [Example S142] | 80
36 | Cc1cc(C)cc(CNCCS(=O)(=O)N2CCC(Nc3nc(N)c(C(=O)c4c(F)cccc4F)s3)CC2)c1 [Example S143] | 55
37 | CC(NCCS(=O)(=O)N1CCC(Nc2nc(N)c(C(=O)c3c(F)cccc3F)s2)CC1)c1ccc(F)cc1 (stereo not drawn) [Example S144] | 43
38 | CCCC(C)(C)NCCS(=O)(=O)N1CCC(Nc2nc(N)c(C(=O)c3c(F)cccc3F)s2)CC1 [Example S145] | 96
39 | CCC(COC)NCCS(=O)(=O)N1CCC(Nc2nc(N)c(C(=O)c3c(F)cccc3F)s2)CC1 (stereo not drawn) [Example S146] | 42
40 | Nc1nc(NC2CCN(S(=O)(=O)CCNCCOCCO)CC2)sc1C(=O)c1c(F)cccc1F [Example S147] | 23
41 | Nc1nc(NC2CCN(S(=O)(=O)CCNCCc3cccs3)CC2)sc1C(=O)c1c(F)cccc1F [Example S148] | 34
42 | Nc1nc(NC2CCN(S(=O)(=O)CCNCCOc3ccccc3)CC2)sc1C(=O)c1c(F)cccc1F [Example S149] | 36
43 | Nc1nc(NC2CCN(S(=O)(=O)CCNC3c4ccccc4CC3O)CC2)sc1C(=O)c1c(F)cccc1F (stereo not drawn) [Example S150] | 33
44 | C=C(C)CNCCS(=O)(=O)N1CCC(Nc2nc(N)c(C(=O)c3c(F)cccc3F)s2)CC1 [Example S151] | 50

Row | SMILES | inhibition at 0.25 µM [%]
45 | Nc1nc(NC2CCN(S(=O)(=O)CCNC3CCSC3=O)CC2)sc1C(=O)c1c(F)cccc1F (stereo not drawn) [Example S152] | 95
46 | Nc1nc(NC2CCN(S(=O)(=O)CCN[C@H]3CCOC3=O)CC2)sc1C(=O)c1c(F)cccc1F [Example S153] | 100
47 | Nc1nc(NC2CCN(S(=O)(=O)CCNCc3cc(F)cc(F)c3)CC2)sc1C(=O)c1c(F)cccc1F [Example S154] | 31
48 | COC(=O)[C@@H](C)NCCS(=O)(=O)N1CCC(Nc2nc(N)c(C(=O)c3c(F)cccc3F)s2)CC1 [Example S155] | 96
49 | CC(C)[C@@H](CO)NCCS(=O)(=O)N1CCC(Nc2nc(N)c(C(=O)c3c(F)cccc3F)s2)CC1 [Example S156] | 17
50 | CN1CCC(NCCS(=O)(=O)N2CCC(Nc3nc(N)c(C(=O)c4c(F)cccc4F)s3)CC2)C1=O (stereo not drawn) [Example S157] | 16
51 | Nc1nc(NC2CCN(S(=O)(=O)CCNCc3cccc(F)c3F)CC2)sc1C(=O)c1c(F)cccc1F [Example S158] | 73
52 | Nc1nc(NC2CCN(S(=O)(=O)CCNCCc3ccccc3F)CC2)sc1C(=O)c1c(F)cccc1F [Example S159] | 44
53 | Nc1nc(NC2CCN(S(=O)(=O)CCNC3Cc4ccccc4C3)CC2)sc1C(=O)c1c(F)cccc1F [Example S161] | 45
54 | CC(CCCC(C)(C)O)NCCS(=O)(=O)N1CCC(Nc2nc(N)c(C(=O)c3c(F)cccc3F)s2)CC1 (stereo not drawn) [Example S162] | 22
55 | CC1CCN(CCNCCS(=O)(=O)N2CCC(Nc3nc(N)c(C(=O)c4c(F)cccc4F)s3)CC2)CC1 [Example S163] | 25
56 | Cc1ccc(CNCCS(=O)(=O)N2CCC(Nc3nc(N)c(C(=O)c4c(F)cccc4F)s3)CC2)o1 [Example S164] | 28
57 | CC(C)OCCNCCS(=O)(=O)N1CCC(Nc2nc(N)c(C(=O)c3c(F)cccc3F)s2)CC1 [Example S166] | 9
58 | Nc1nc(NC2CCN(S(=O)(=O)CCNCCc3cccnc3)CC2)sc1C(=O)c1c(F)cccc1F [Example S167] | 3
59 | Nc1nc(NC2CCN(S(=O)(=O)CCNCC(=O)NO)CC2)sc1C(=O)c1c(F)cccc1F [Example S168] | 16
60 | Nc1nc(NC2CCN(S(=O)(=O)CCNCc3ccc4c(c3)CCO4)CC2)sc1C(=O)c1c(F)cccc1F [Example S169] | 17
61 | Nc1nc(NC2CCN(S(=O)(=O)CCN[C@@H]3C=CCCC3)CC2)sc1C(=O)c1c(F)cccc1F [Example S170] | 15
62 | Cc1cnc(CNCCS(=O)(=O)N2CCC(Nc3nc(N)c(C(=O)c4c(F)cccc4F)s3)CC2)cn1 [Example S171] | 18
63 | Nc1nc(NC2CCN(S(=O)(=O)CCN[C@H]3C=CCCC3)CC2)sc1C(=O)c1c(F)cccc1F [Example S172] | 20
